± gives the expanded uncertainty stated by the source.
Assay: molar heat capacity at constant pressure
Conditions: 100 kPa, Extra sensitive DSC

molar heat capacity at constant pressure (293.15 K, Crystal): 216.99 ± 12 J/K/mol
molar heat capacity at constant pressure (303.15 K, Crystal): 221.39 ± 12 J/K/mol
molar heat capacity at constant pressure (313.15 K, Crystal): 224.33 ± 12 J/K/mol
molar heat capacity at constant pressure (363.15 K, Liquid): 284.44 ± 13 J/K/mol
molar heat capacity at constant pressure (373.15 K, Liquid): 291.77 ± 13 J/K/mol
SMILES: CCn1cc[n+](C)c1.[Cl-] [1-ethyl-3-methylimidazolium chloride]
